According to ChEMBL document CHEMBL1201862, “PubChem BioAssay data set” (2004):
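Assay format: 96-well plates, 48-hour exposure. GI50 is the concentration that inhibits growth by half.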 Active and inactive are the calls of the source. Cut-off read from the data, not from the text of the source: active = GI50 up to about 1.1 µM and inactive = higher.

Key:
Assay in all cases: NCI anticancer screen, dose series, 48 h
Hs-578T = tested on: Hs-578T
A498 = tested on: A498
SNB-75 = tested on: SNB-75
SW-620 = tested on: SW-620
NCI-H522 = tested on: NCI-H522
IGROV-1 = tested on: IGROV-1
KM12 = tested on: KM12
COLO 205 = tested on: COLO 205
NCI-H226 = tested on: NCI-H226
OVCAR-3 = tested on: OVCAR-3
SF-539 = tested on: SF-539
MCF7 = tested on: MCF7
SK-OV-3 = tested on: SK-OV-3
Malme-3M = tested on: Malme-3M
CAKI-1 = tested on: CAKI-1
HCC 2998 = tested on: HCC 2998
HOP-62 = tested on: HOP-62
SK-MEL-28 = tested on: SK-MEL-28
MOLT-4 = tested on: MOLT-4
RXF 393 = tested on: RXF 393

| SMILES | GI50 (Hs-578T) | GI50 (A498) | GI50 (SNB-75) | GI50 (SW-620) | GI50 (NCI-H522) | GI50 (IGROV-1) | GI50 (KM12) | GI50 (COLO 205) | GI50 (NCI-H226) | GI50 (OVCAR-3) | GI50 (SF-539) | GI50 (MCF7) | GI50 (SK-OV-3) | GI50 (Malme-3M) | GI50 (CAKI-1) | GI50 (HCC 2998) | GI50 (HOP-62) | GI50 (SK-MEL-28) | GI50 (MOLT-4) | GI50 (RXF 393) |
| --- | --- | --- | --- | --- | --- | --- | --- | --- | --- | --- | --- | --- | --- | --- | --- | --- | --- | --- | --- | --- |
| CSc1nc(Br)nc2ncn(C3CC(Oc4ccc(C)cc4)C(COc4ccc(C)cc4)O3)c12 (stereo not drawn) | 25.1 µM (inactive) | > 100 µM (inactive) | 21.9 µM (inactive) | > 100 µM (inactive) | > 100 µM (inactive) | > 100 µM (inactive) | > 100 µM (inactive) | > 100 µM (inactive) | > 100 µM (inactive) | > 100 µM (inactive) | 28.9 µM (inactive) | > 100 µM (inactive) | > 100 µM (inactive) | > 100 µM (inactive) | 66.2 µM (inactive) | > 100 µM (inactive) | > 100 µM (inactive) | > 100 µM (inactive) | > 100 µM (inactive) |  |
| C=C1C(=O)O[C@H]2[C@H]3O[C@@H](C[C@@H]12)[C@@]1(C)CC[C@H](O1)[C@H](C)CCC[C@H]3C | 2.64 µM (inactive) | 1.71 µM (inactive) | 1.63 µM (inactive) | 1.46 µM (inactive) | 1.42 µM (inactive) | 1.19 µM (inactive) | 2.18 µM (inactive) | 1.75 µM (inactive) | 1.53 µM (inactive) | 1.1 µM (active) |  | 1.77 µM (inactive) | 7.38 µM (inactive) | 1.72 µM (inactive) | 1.28 µM (inactive) | 1.28 µM (inactive) | 4.74 µM (inactive) | 1.63 µM (inactive) | 1.23 µM (inactive) | 2.15 µM (inactive) |
| O=[N+]([O-])c1ccc(NC(=S)N/N=C(\c2ccccc2)c2ccccn2)cc1 | 3.3 µM (inactive) | 1.75 µM (inactive) | 2.1 µM (inactive) |  | 0.12 µM (active) | 1.64 µM (inactive) | 1.7 µM (inactive) | 0.312 µM (active) | 1.47 µM (inactive) |  | 1.74 µM (inactive) | 1.43 µM (inactive) | 1.4 µM (inactive) | 1.65 µM (inactive) | 1.6 µM (inactive) | 1.51 µM (inactive) | 0.242 µM (active) | 1.22 µM (inactive) | < 0.0314 µM (active) | 1.38 µM (inactive) |
| C[C@H]1C[C@H]2[C@@H]3CCC4=CC(=O)C=C[C@]4(C)C3=CC[C@]2(C)[C@@]1(O)C(=O)CO | > 100 µM (inactive) | 23.4 µM (inactive) | > 100 µM (inactive) |  | 68.2 µM (inactive) | > 100 µM (inactive) | > 100 µM (inactive) | > 100 µM (inactive) | > 100 µM (inactive) |  |  | > 100 µM (inactive) | > 100 µM (inactive) | > 100 µM (inactive) | > 100 µM (inactive) | > 100 µM (inactive) | > 100 µM (inactive) | > 100 µM (inactive) | 64 µM (inactive) | > 100 µM (inactive) |
| N#CC(c1ccccc1)N(CCOCCOCCN(C(=O)c1ccccc1)C(C#N)c1ccccc1)C(=O)c1ccccc1 (stereo not drawn) | > 100 µM (inactive) | > 100 µM (inactive) | > 100 µM (inactive) | > 100 µM (inactive) |  | > 100 µM (inactive) | > 100 µM (inactive) | > 100 µM (inactive) | > 100 µM (inactive) | 66.8 µM (inactive) | > 100 µM (inactive) | > 100 µM (inactive) | > 100 µM (inactive) | 93.5 µM (inactive) | > 100 µM (inactive) | 94.2 µM (inactive) |  | 82.6 µM (inactive) | 32.2 µM (inactive) | > 100 µM (inactive) |
| O=C(O)c1cc([N+](=O)[O-])cc2c(=O)c3cnccc3[nH]c12 | > 100 µM (inactive) | > 100 µM (inactive) | > 100 µM (inactive) |  | > 100 µM (inactive) | > 100 µM (inactive) | > 100 µM (inactive) | > 100 µM (inactive) | > 100 µM (inactive) | > 100 µM (inactive) |  | > 100 µM (inactive) | > 100 µM (inactive) | > 100 µM (inactive) | > 100 µM (inactive) | > 100 µM (inactive) | > 100 µM (inactive) | > 100 µM (inactive) | 54.8 µM (inactive) | > 100 µM (inactive) |
| Nc1ncc(Cc2ccc3c(c2)OCO3)c(N)n1 | > 100 µM (inactive) | > 100 µM (inactive) |  | > 100 µM (inactive) |  | > 100 µM (inactive) | > 100 µM (inactive) | > 100 µM (inactive) | > 100 µM (inactive) | > 100 µM (inactive) | > 100 µM (inactive) | > 100 µM (inactive) | > 100 µM (inactive) | > 100 µM (inactive) | > 100 µM (inactive) | 5.83 µM (inactive) | > 100 µM (inactive) | > 100 µM (inactive) | > 100 µM (inactive) | > 100 µM (inactive) |
| CCc1c(Cc2cc(C)cc(C)c2)n2c(nc1=O)SCC2CBr (stereo not drawn) | > 50 µM (inactive) | 28.7 µM (inactive) | 15.5 µM (inactive) | > 50 µM (inactive) | 27.4 µM (inactive) | 24.2 µM (inactive) | > 50 µM (inactive) | > 50 µM (inactive) | > 50 µM (inactive) |  | > 50 µM (inactive) | 29.4 µM (inactive) |  | 12.9 µM (inactive) | > 50 µM (inactive) | > 50 µM (inactive) |  | > 50 µM (inactive) | 34 µM (inactive) | > 50 µM (inactive) |
| O=CC1OC(=O)c2cc(O)c(O)c(O)c2-c2c(cc(O)c(O)c2O)C(=O)OC1C(O)C(O)CO (stereo not drawn) | 54 µM (inactive) | > 100 µM (inactive) | > 100 µM (inactive) | 17.1 µM (inactive) | 31 µM (inactive) | > 100 µM (inactive) | 41.5 µM (inactive) | 45.5 µM (inactive) | > 100 µM (inactive) | 71 µM (inactive) | > 100 µM (inactive) | 19.1 µM (inactive) |  | > 100 µM (inactive) | 19.1 µM (inactive) | > 100 µM (inactive) | 63.2 µM (inactive) | 83.4 µM (inactive) | 22.9 µM (inactive) | > 100 µM (inactive) |
| O=c1c2c3c(sc2nc2n1NC=NN2)CCCC3 | 21.8 µM (inactive) | > 53.6 µM (inactive) | 23.8 µM (inactive) | 17.6 µM (inactive) | 16.3 µM (inactive) | 26.6 µM (inactive) | 18.1 µM (inactive) | 25.4 µM (inactive) | 17.3 µM (inactive) | 1.28 µM (inactive) | 17.4 µM (inactive) | 13.8 µM (inactive) | 42.8 µM (inactive) | 21.4 µM (inactive) | 18 µM (inactive) | 24.4 µM (inactive) |  | 17.7 µM (inactive) | 0.323 µM (active) | 25.2 µM (inactive) |
| COC(=O)[C@]12CC[C@H]3CN(S(=O)(=O)c4ccc(C)cc4)[C@H]([C@H]31)[C@H](c1ccco1)N2S(=O)(=O)c1ccc(C)cc1 | > 100 µM (inactive) | 53.2 µM (inactive) |  | 70.1 µM (inactive) | 29.9 µM (inactive) | 35.8 µM (inactive) | 32.9 µM (inactive) | 20.5 µM (inactive) | 42.5 µM (inactive) | 56.2 µM (inactive) | > 100 µM (inactive) | 32.2 µM (inactive) | > 100 µM (inactive) | 23.8 µM (inactive) | 38.1 µM (inactive) | 78.2 µM (inactive) | 66.4 µM (inactive) | 51.4 µM (inactive) | 31.1 µM (inactive) | 16.8 µM (inactive) |
| C=CCOC1OC(CS(=O)(=O)O)C(OC(C)=O)C(OC(C)=O)C1OC(C)=O (stereo not drawn) | > 100 µM (inactive) | > 100 µM (inactive) | > 100 µM (inactive) | > 100 µM (inactive) |  | > 100 µM (inactive) | > 100 µM (inactive) | > 100 µM (inactive) | > 100 µM (inactive) | > 100 µM (inactive) |  | > 100 µM (inactive) | > 100 µM (inactive) | > 100 µM (inactive) | > 100 µM (inactive) | > 100 µM (inactive) | > 100 µM (inactive) | > 100 µM (inactive) | > 100 µM (inactive) | > 100 µM (inactive) |
| CC1=NN=C(N)N/C1=C/C(Sc1ccc(Cl)cc1)c1cccs1 (stereo not drawn) | 17 µM (inactive) | 16.4 µM (inactive) |  | 15.9 µM (inactive) | 4.65 µM (inactive) | 11.4 µM (inactive) | 11.1 µM (inactive) | 22.1 µM (inactive) | 17 µM (inactive) |  |  | 6.53 µM (inactive) | 12 µM (inactive) | 13.1 µM (inactive) | 15.7 µM (inactive) | 12.4 µM (inactive) | 12.5 µM (inactive) | 17.5 µM (inactive) | 13.6 µM (inactive) | 17.4 µM (inactive) |
| CN1CC[C@@]2(c3cccc(O)c3)CC(=O)/C(=C/c3ccccc3)[C@H]1C2.[O-][Cl+3]([O-])([O-])O | 3.35 µM (inactive) | 9.31 µM (inactive) | 2.47 µM (inactive) | 2.54 µM (inactive) | 3.93 µM (inactive) | 13.7 µM (inactive) | 3.81 µM (inactive) | 8.05 µM (inactive) | 17.8 µM (inactive) |  | 16.9 µM (inactive) | 2.64 µM (inactive) |  | 15 µM (inactive) | 1.64 µM (inactive) | 10.4 µM (inactive) | 18.5 µM (inactive) | 11.2 µM (inactive) | 2.49 µM (inactive) | 8.17 µM (inactive) |
| O=c1oc2cc(O)ccc2cc1-c1nc2ccccc2o1 | 33.4 µM (inactive) | 29.2 µM (inactive) | 63.8 µM (inactive) | 40.3 µM (inactive) | 17.1 µM (inactive) | 29.1 µM (inactive) | 25.8 µM (inactive) | 30.8 µM (inactive) | 61.5 µM (inactive) | 19.1 µM (inactive) | 58.2 µM (inactive) | 32.8 µM (inactive) |  | 39.5 µM (inactive) | 44 µM (inactive) | 39.8 µM (inactive) | 23.3 µM (inactive) | 43.5 µM (inactive) | 24.7 µM (inactive) | < 0.01 µM (active) |
